Assay results published in paper PMC4045134, “Discovery of Triterpenoids as Reversible Inhibitors of α/β-hydrolase Domain Containing 12 (ABHD12)” (PLoS ONE, 2014).
Entries after “also recorded” stand apart in the source; their conditions may differ. Where two headings read alike, the source gives them in different places.

Target: T1, hABHD12 (Homo sapiens, UniProt Q8N2K0)
T1 construct: expressed in transfected cells; host or cells: HEK293 (transient)
T1 sequence (Q8N2K0 1-398): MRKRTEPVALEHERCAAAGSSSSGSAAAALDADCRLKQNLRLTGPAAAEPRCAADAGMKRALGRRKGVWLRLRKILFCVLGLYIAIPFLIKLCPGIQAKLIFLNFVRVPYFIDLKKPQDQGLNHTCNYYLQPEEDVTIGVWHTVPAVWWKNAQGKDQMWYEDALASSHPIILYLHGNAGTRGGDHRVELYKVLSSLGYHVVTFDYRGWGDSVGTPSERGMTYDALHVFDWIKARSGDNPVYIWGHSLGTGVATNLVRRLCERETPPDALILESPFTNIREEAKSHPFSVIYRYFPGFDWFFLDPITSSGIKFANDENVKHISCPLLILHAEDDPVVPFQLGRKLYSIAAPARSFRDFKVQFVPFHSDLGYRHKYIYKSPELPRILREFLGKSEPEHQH
Assay: Fluorescent glycerol assay of 1-AG hydrolysis in hABHD12-HEK293 lysates
Type: biochemical
Conditions: for remaining activity at 10 µM: read-out: Remaining activity at 10 µM % ± s.e.m.; for inhibition at 10 µM: read-out: inhibition of hABHD12 at 10 µM; for Emax: read-out: max inhibition (converted)
Procedure: Glycerol liberated from 1-AG hydrolysis was determined with a sensitive fluorescent assay using lysates of HEK293 cells with transient overexpression of hABHD12, hABHD6 or hMAGL, essentially as previously described. […] Fluorescence (λex 530; λem 590 nm) was monitored using a Tecan Infinite M200 plate reader (Tecan Group Ltd., Männedorf, Switzerland). Inhibitory activities of selected compounds towards FAAH were determined using membranes of hFAAH overexpressing COS-7 cells, essentially as previously described. The final incubation volume (100 µL) contained 1 µg of protein and the substrate concentration was 20 µM (10 nM of ^3H-anandamide having specific activity of 60 Ci/mmol and concentration of 1 mCi/mL).

[1] = hABHD12-HEK293 lysates, 10 µM, NI = no inhibition
[2] = hABHD12-HEK293 lysates, three independent experiments, read-out: -logIC50±s.e.m. (converted)
[3] = hABHD12-HEK293 lysates, read-out: IC50

Structure (SMILES)	remaining activity at 10 µM [1]	further results
C=C(C)[C@@H]1CC[C@]2(CO)CC[C@]3(C)[C@H](CC[C@@H]4[C@@]5(C)CC[C@H](O)C(C)(C)[C@@H]5CC[C@]43C)[C@@H]12 [Compound 2, Betulin, reference compound]	~75%	–
C=C(C)[C@@H]1CC[C@]2(C)CC[C@]3(C)[C@H](CC[C@@H]4[C@@]5(C)CC[C@H](O)C(C)(C)[C@@H]5CC[C@]43C)[C@@H]12 [Compound 3, Lupeol, reference compound]	> 100%	–
C[C@H]1[C@H](C)CC[C@]2(C(=O)O)CC[C@]3(C)C(=CC[C@@H]4[C@@]5(C)C[C@@H](O)[C@H](O)[C@@](C)(CO)[C@@H]5CC[C@]43C)[C@H]12 [Compound 5, Asiatic acid, reference compound]	> 100%	hABHD12 inhibitory activity (in words): did not inhibit hABHD12; also recorded: completely devoid of activity
C[C@H]1[C@H](C)CC[C@]2(C)CC[C@]3(C)C(=CC[C@@H]4[C@@]5(C)CC[C@H](O)C(C)(C)[C@@H]5CC[C@]43C)[C@H]12 [Compound 6, α-Amyrin, reference compound]	> 100%	–
CC1(C)CC[C@]2(C(=O)O)CC[C@]3(C)C(=CC[C@@H]4[C@@]5(C)CC[C@H](O)C(C)(C)[C@@H]5CC[C@]43C)[C@@H]2C1 [Compound 7, Oleanolic acid, reference compound]	~20%	–
CC1(C)CC[C@]2(C(=O)O)CC[C@]3(C)C(=CC[C@@H]4[C@@]5(C)CC[C@H](O)[C@@](C)(CO)[C@@H]5CC[C@]43C)[C@@H]2C1 [Compound 9, Hederagenin, reference compound]	78 ± 3%	hABHD12 inhibitory activity (in words): did not inhibit hABHD12
CC1(C)CC[C@]2(C)CC[C@]3(C)C(=CC[C@@H]4[C@@]5(C)CC[C@H](O)C(C)(C)[C@@H]5CC[C@]43C)[C@@H]2C1 [Compound 10, β-Amyrin, reference compound]	> 100%	–
COC(=O)[C@]12CCC(C)(C)C[C@H]1[C@H]1C(=O)C=C3[C@@]4(C)C=C(C#N)C(=O)C(C)(C)[C@@H]4CC[C@@]3(C)[C@]1(C)CC2 [Compound 13, CDDO methyl ester, reference compound]	> 100%	–
CC1=C(O)C(=O)C=C2C1=CC=C1[C@@]2(C)CC[C@@]2(C)[C@@H]3C[C@](C)(C(=O)O)CC[C@]3(C)CC[C@]12C [Compound 14, Celastrol, reference compound]	> 100%	–
COC(=O)[C@]1(C)CC[C@]2(C)CC[C@]3(C)C4=CC=C5C(=CC(=O)C(O)=C5C)[C@]4(C)CC[C@@]3(C)[C@@H]2C1 [Compound 15, Pristimerin, reference compound]	–	remaining activity at 10 µM: > 100%
C=C(C)[C@@H]1CC[C@]2(C=O)CC[C@]3(C)[C@H](CC[C@@H]4[C@@]5(C)CC[C@H](O)C(C)(C)[C@@H]5CC[C@]43C)[C@@H]12 [Compound 16]	71 ± 0.8%	inhibition at 10 µM: ~30%
C=C(C)[C@@H]1CC[C@]2(C(=O)NCCC)CC[C@]3(C)[C@H](CC[C@@H]4[C@@]5(C)CCC(=O)C(C)(C)[C@@H]5CC[C@]43C)[C@@H]12 [Compound 20]	84 ± 1.5%	–
C=C(C)[C@@H]1CC[C@]2(C(=O)N3CCCC3)CC[C@]3(C)[C@H](CC[C@@H]4[C@@]5(C)CCC(=O)C(C)(C)[C@@H]5CC[C@]43C)[C@@H]12 [Compound 21]	80 ± 0.3%	–
C=C(C)[C@@H]1CC[C@]2(COC(=O)/C=C/c3ccccc3)CC[C@]3(C)[C@H](CC[C@@H]4[C@@]5(C)CC[C@H](O)C(C)(C)[C@@H]5CC[C@]43C)[C@@H]12 [Compound 26]	> 100%	–
C=C(C)[C@@H]1CC[C@]2(COC(=O)CCC(C)=O)CC[C@]3(C)[C@H](CC[C@@H]4[C@@]5(C)CC[C@H](O)C(C)(C)[C@@H]5CC[C@]43C)[C@@H]12 [Compound 27]	85 ± 0.5%	–
C=C(C)[C@@H]1CC[C@]2(COC(=O)CCC(C)=O)CC[C@]3(C)[C@H](CC[C@@H]4[C@@]5(C)CC[C@H](OC(=O)CCC(C)=O)C(C)(C)[C@@H]5CC[C@]43C)[C@@H]12 [Compound 28]	> 100%	–
C=C(C)[C@@H]1CC[C@]2(COC3CCCCO3)CC[C@]3(C)[C@H](CC[C@@H]4[C@@]5(C)CC[C@H](O)C(C)(C)[C@@H]5CC[C@]43C)[C@@H]12 (stereo partly shown) [Compound 29]	> 100%	–
C=C(C)[C@@H]1CC[C@]2(CO)CC[C@]3(C)[C@H](CC[C@@H]4[C@@]5(C)CC[C@H](OC(C)=O)C(C)(C)[C@@H]5CC[C@]43C)[C@@H]12 [Compound 30]	> 100%	–
C=C(C)[C@@H]1CC[C@]2(C(=O)O)CC[C@]3(C)[C@H](CC[C@@H]4[C@@]5(C)CC(O)C(O)C(C)(C)[C@@H]5CC[C@]43C)[C@@H]12 (stereo partly drawn) [Compound 32, 2β,3β-Dihydroxylup-20(29)-en-28-oic acid]	–	IC50 [2]: 3.72 µM; Emax (hABHD12-HEK293 lysates): 100%
C=C(C)[C@@H]1CC[C@]2(C(=O)O)CC[C@]3(C)[C@H](CC[C@@H]4[C@@]5(C)Cc6c[nH]nc6C(C)(C)[C@@H]5CC[C@]43C)[C@@H]12 [Compound 37]	–	IC50 [2]: 1.45 µM; Emax (hABHD12-HEK293 lysates): 100%
C=C(C)[C@@H]1CC[C@]2(C=O)CC[C@]3(C)[C@H](CC[C@@H]4[C@@]5(C)Cc6cnoc6C(C)(C)[C@@H]5CC[C@]43C)[C@@H]12 [Compound 38]	84 ± 1.6%	hABHD12 inhibitory activity (in words): poor inhibitory activity; also recorded: complete loss of the inhibitory activity
CC(C)[C@@]12CC[C@]3(CO)CC[C@]4(C)C(=C31)C(C[C@@H]1[C@@]3(C)CC[C@H](O)C(C)(C)[C@@H]3CC[C@]14C)n1c(=O)n(-c3ccccc3)c(=O)n12 (stereo partly shown) [Compound 39]	86 ± 0.4%	–
C=C(C)[C@@H]1CC[C@]2(C(=O)O)CC[C@]3(C)[C@H](CC[C@@H]4[C@@]5(C)Cc6ncccc6C(C)(C)[C@@H]5CC[C@]43C)[C@@H]12 [Compound 40, Lupa-2,20(29)-dieno[2,3-b]pyridin-28-oic acid]	66 ± 1.1%	inhibition at 10 µM: 34%
C=C(C)[C@@H]1CC[C@]2(C(=O)O)CC[C@]3(C)[C@H](CC[C@@H]4[C@@]5(C)Cc6cccnc6C(C)(C)[C@@H]5CC[C@]43C)[C@@H]12 [Compound 41]	–	IC50 [2]: 6.61 µM; IC50 [3]: 6.7 µM; Emax (hABHD12-HEK293 lysates): 80%
C=C(C)[C@@H]1CC[C@]2(C(=O)O)CC[C@]3(C)[C@H](CC[C@@H]4[C@@]5(C)Cc6nccnc6C(C)(C)[C@@H]5CC[C@]43C)[C@@H]12 [Compound 42]	–	IC50 [2]: 3.55 µM; IC50 [3]: 3.6 µM; Emax (hABHD12-HEK293 lysates): 56%
C=C(C)[C@@H]1CC[C@]2(C(N)=O)CC[C@]3(C)[C@H](CC[C@@H]4[C@@]5(C)Cc6nccnc6C(C)(C)[C@@H]5CC[C@]43C)[C@@H]12 [Compound 43]	69 ± 0.8%	–
